Experimental data: patent US9771381B2, “Derivatives of 1-amino-2-cyclobutylethylboronic acid” (Millennium Pharmaceuticals, Inc., priority 2008, dated 2017)
pIC50: −log10 of the molar value.

Assays:
human 20S proteasome [1] = target: human 20S proteasome (Homo sapiens, UniProt P28072+P28074+Q99436); assay: Proteasome Inhibition Kinetics (enzyme progress curves); format: biochemical; conditions: human 20S proteasome 0.25 nM activated with 0.01% SDS, 37° C.; half-life determined from koff; read-out: dissociation half-life t1/2
Description: Enzyme kinetic parameters including dissociation constants and half lives were determined by analysis of enzyme progress curves as follows:
Proteasome inactivation measurements were obtained by monitoring individual progress curves for the hydrolysis of the site-specific fluorogenic 7-amido-4-methylcoumarin (AMC)-labeled peptide substrates (β5, Suc-LLVY-AMC; β2, Z-VLR-AMC, and β1, Z-LLE-AMC) at different inhibitor concentrations. Cleavage of the fluorogenic peptide was continuously monitored as a change in the fluorescence emission at 460 nm (λex=360 nm) and plotted as a function of time. All assays were performed in cuvettes with 2 mL of 50 mM HEPES (pH 7.5), 0.5 mM EDTA, at 37±0.2° C., and with continuous stirring. The concentrations of substrates varied from 10 to 25 μM (<½ KM). The concentration of human 20S proteasome was 0.25 nM and was activated with 0.01% SDS. The rate constant, kobs, describing the conversion from the initial velocity to the steady state velocity, were estimated by nonlinear least-squares regression analysis of the individual progress curves using the equation for time-dependent or slow-binding inhibition:
[formula] where F is fluorescence, vi and vs are the initial and steady state velocities of the reaction in the presence of inhibitor, and t is time. A plot of kobs as a function of [I] was made to obtain kon from the slope of the linear fit of the data. The apparent dissociation constant, K^appii, was determined by nonlinear least-fit of the fractional velocity, vs/vo, as a function of [I], were vs is the steady state value obtained from the time-dependent or slow-binding equation and vo is the initial velocity in the absence of inhibitor: […]
The dissociation constant Ki, was calculated from the apparent Ki using the following expression: […]
The off rate, koff, was mathematically calculated from the above determined parameters using the following relationship:
The half-life was then determined from the koff value using the following relationship: […]

human 20S proteasome [2] = target: T1, human 20S proteasome (Homo sapiens, UniProt P28074); assay: 20S Proteasome Assay; format: biochemical; conditions: Ac-WLA-AMC substrate 15 μM, human PA28 activator 12 nM, human 20S proteasome 0.25 nM, 37° C., pH7.4
T1 construct: purchased Boston Biochem

residence time (human 20S proteasome [1]) [min] | pIC50 (human 20S proteasome [2]) | Compound
– | > 7.30 | O=C(N[C@@H](Cc1ccccc1)C(=O)N[C@@H](CC1CCC1)B(O)O)c1ccc(Oc2ccccc2)nc1 [Compound 39, {(1R)-2-cyclobutyl-1-[((2S)-2-{[(6-phenoxypyridin-3-yl)carbonyl]amino}-3-phenylpropanoyl)amino]ethyl}boronic acid]
– | > 7.30 | CN1C(=O)Cc2cc(S(=O)(=O)N[C@@H](Cc3ccccc3)C(=O)N[C@@H](CC3CCC3)B(O)O)ccc21 [Compound 40, {(1R)-2-cyclobutyl-1-[((2S)-2-{[(1-methyl-2-oxo-2,3-dihydro-1H-indol-5-yl)sulfonyl]amino}-3-phenylpropanoyl)amino]ethyl}boronic acid]
< 10 | > 7.30 | O=C(N[C@@H](CC1CCC1)B(O)O)[C@H](Cc1ccccc1)NS(=O)(=O)c1ccc(Oc2ccccn2)cc1 [Compound 41, ((1R)-2-cyclobutyl-1-{[(2S)-3-phenyl-2-({[4-(pyridin-2-yloxy)phenyl]sulfonyl}amino)propanoyl]amino}ethyl)boronic acid]
– | 6.82 to 7.30 | C[C@H](O)[C@H](NS(=O)(=O)c1ccc(Oc2ccccc2)nc1)C(=O)N[C@@H](CC1CCC1)B(O)O [Compound 42, {(1R)-2-cyclobutyl-1-[((2S)-3-hydroxy-2-{[(6-phenoxypyridin-3-yl)sulfonyl]amino}butanoyl)amino]ethyl}boronic acid]
< 10 | > 7.30 | O=C(N[C@@H](CC1CCC1)B(O)O)[C@H](Cc1ccccc1)NS(=O)(=O)c1ccc(Oc2ccncc2)cc1 [Compound 43, ((1R)-2-cyclobutyl-1-{[(2S)-3-phenyl-2-({[4-(pyridin-4-yloxy)phenyl]sulfonyl}amino)propanoyl]amino}ethyl)boronic acid]
– | > 7.30 | Cc1nc(-c2cccc(S(=O)(=O)N[C@@H](Cc3ccccc3)C(=O)N[C@@H](CC3CCC3)B(O)O)c2)cs1 [Compound 44, ((1R)-2-cyclobutyl-1-{[(2S)-2-({[3-(2-methyl-1,3-thiazol-4-yl)phenyl]sulfonyl}amino)-3-phenylpropanoyl]amino}ethyl)boronic acid]
< 10 | > 7.30 | O=C(N[C@@H](CC1CCC1)B(O)O)[C@H](Cc1ccccc1)NS(=O)(=O)c1ccc(Oc2cccnc2)cc1 [Compound 45, ((1R)-2-cyclobutyl-1-{[(2S)-3-phenyl-2-({[4-(pyridin-3-yl-oxy)phenyl]sulfonyl}amino)propanoyl]amino}ethyl)boronic acid]
– | 6.82 to 7.30 | C[C@H](O)[C@H](NS(=O)(=O)c1ccc2c(c1)N(C)CCO2)C(=O)N[C@@H](CC1CCC1)B(O)O [Compound 46, {(1R)-2-cyclobutyl-1-[((2S)-3-hydroxy-2-{[(4-methyl-3,4-dihydro-2H-1,4-benzoxazin-6-yl)sulfonyl]amino}butanoyl)amino]ethyl}boronic acid]
– | 6.82 to 7.30 | O=C(N[C@@H](CC1CCC1)B(O)O)[C@H](Cc1ccccc1)NS(=O)(=O)c1cccc2cnccc12 [Compound 47, [(1R)-2-cyclobutyl-1-({(2S)-2-[(isoquinolin-5-ylsulfonyl)amino]-3-phenylpropanoyl}amino)ethyl]boronic acid]
– | > 7.30 | O=C(N[C@@H](CC1CCC1)B(O)O)[C@H](Cc1ccccc1)NS(=O)(=O)c1ccc2ncsc2c1 [Compound 48, [(1R)-1-({(2S)-2-[(1,3-benzothiazol-6-ylsulfonyl)amino]-3-phenylpropanoyl}-amino)-2-cyclobutylethyl]boronic acid]

Further lines, the compound ahead of its results:

Compound | residence time (human 20S proteasome [1]) [min] | pIC50 (human 20S proteasome [2])
O=C(N[C@@H](CC1CCC1)B(O)O)[C@H](Cc1ccccc1)NS(=O)(=O)c1ccc2ccccc2c1 [Compound 1, [(1R)-2-cyclobutyl-1-({(2S)-2-[(2-naphthylsulfonyl)amino]-3-phenylpropanoyl}amino)ethyl]boronic acid] | < 10 | > 7.30
O=C(N[C@@H](Cc1ccccc1)C(=O)N[C@@H](CC1CCC1)B(O)O)c1cccnc1Oc1ccccc1 [Compound 2, {(1R)-2-cyclobutyl-1-[((2S)-2-{[(2-phenoxypyridin-3-yl)carbonyl]amino}-3-phenylpropanoyl)amino]ethyl}boronic acid] | 10 to 60 | > 7.30
O=C(N[C@@H](Cc1ccccc1)C(=O)N[C@@H](CC1CCC1)B(O)O)c1cc(Cl)ccc1Cl [Compound 6, [(1R)-2-cyclobutyl-1-({(2S)-2-[(2,5-dichlorobenzoyl)amino]-3-phenylpropanoyl}amino)ethyl]boronic acid] | 10 to 60 | > 7.30
O=C(N[C@@H](Cc1ccccc1)C(=O)N[C@@H](CC1CCC1)B(O)O)c1cnccn1 [Compound 17, [(1R)-2-cyclobutyl-1-({(2S)-3-phenyl-2-[(pyrazin-2-ylcarbonyl)amino]propanoyl}amino)ethyl]boronic acid] | 10 to 60 | > 7.30
CN1CCOc2ccc(S(=O)(=O)N[C@@H](Cc3ccccc3)C(=O)N[C@@H](CC3CCC3)B(O)O)cc21 [Compound 20, {(1R)-2-cyclobutyl-1-[((2S)-2-{[(4-methyl-3,4-dihydro-2H-1,4-benzoxazin-6-yl)sulfonyl]amino}-3-phenylpropanoyl)amino]ethyl}boronic acid] | < 10 | > 7.30
O=C(N[C@@H](CC1CCC1)B(O)O)[C@H](Cc1ccccc1)NS(=O)(=O)c1cc(Cl)ccc1Cl [Compound 35, {(1R)-2-cyclobutyl-1-[((2S)-2-{[(2,5-dichlorophenyl)sulfonyl]amino}-3-phenylpropanoyl)amino]ethyl}boronic acid] | < 10 | > 7.30
O=C(N[C@@H](CC1CCC1)B(O)O)[C@H](Cc1ccccc1)NS(=O)(=O)c1ccc(-c2cnco2)cc1 [Compound 36, ((1R)-2-cyclobutyl-1-{[(2S)-2-({[4-(1,3-oxazol-5-yl)phenyl]sulfonyl}amino)-3-phenylpropanoyl]amino}ethyl)boronic acid] | < 10 | > 7.30
